Read-outs that look alike come from different tables or passages of the source.
Assays:
Influenza A H1N1 = assay: Antiviral activity, Influenza A H1N1; assay type: cell-based
Influenza A H3N2 = assay: Antiviral activity, Influenza A H3N2; assay type: cell-based
[1] = system: Influenza A H5N1 (low path); assay: microbe, parasite or virus in culture; assay type: cell-based; conditions: H5N1, read-out: Influenza A H5N1 (low path) EC50
Influenza B = assay: Antiviral activity, Influenza B; assay type: cell-based
RSV = assay: Antiviral activity, RSV; assay type: cell-based; conditions: human respiratory syncytial virus
Measles = assay: Antiviral activity, Measles; assay type: cell-based, measles virus; conditions: Measles morbillivirus
CHIK Virus = assay: Antiviral activity, CHIK Virus; assay type: cell-based; conditions: Chikungunya virus, read-out: CHIK Virus EC50
Dengue Virus = assay: Antiviral activity, Dengue Virus; assay type: cell-based
RVFV = assay: microbe, parasite or virus in culture; assay type: cell-based; conditions: Rift Valley fever virus, read-out: RVFV EC50
Tacaribe Virus = assay: microbe, parasite or virus in culture; assay type: cell-based; conditions: Mammarenavirus tacaribeense, read-out: Tacaribe Virus EC50
VEEV = assay: microbe, parasite or virus in culture; assay type: cell-based; conditions: Venezuelan equine encephalitis virus, read-out: VEEV EC50
West Nile Virus = assay: Antiviral activity, West Nile Virus; assay type: cell-based; conditions: read-out: West Nile Virus EC50
SARS = assay: microbe, parasite or virus in culture; conditions: Severe acute respiratory syndrome coronavirus, read-out: SARS EC50
[2] = Cytotoxicity panel, Huh-7; conditions: human, Huh-7 cells, Cytotoxicity (CC50 uM) Huh-7, Huh-7
[3] = Cytotoxicity panel, HepG2; conditions: human, HepG2 cells
[4] = Cytotoxicity panel, BxPC3; conditions: human, BxPC3 cells
[5] = Toxicity in Vero cells (Dengue assay); conditions: African green monkey
[6] = Toxicity in Huh-7 cells (Dengue assay); conditions: human, Huh-7 cells
[7] = Cellular toxicity in parallel with HCV replicon assay (XTT); conditions: human
Cytotoxicity panel, H9c = assay type: cell-based; conditions: rat, H9c cells
[8] = Cytotoxicity in GT1b replicon cells; assay type: cell-based
Huh-7 = assay: Cytotoxicity panel, Huh-7; conditions: read-out: Cytotoxicity (CC50 uM) Huh-7; Huh-7
Cytotoxicity panel, A204 = assay type: cell-based; conditions: human, A204 cells
[9] = Cytotoxicity panel, IEC-6; assay type: cell-based; conditions: rat, IEC-6 cells
Cytotoxicity panel, CEM = conditions: human, CEM cells, Cytotoxicity (CC50 uM) CEM
[10] = Influenza A virus, H1N1; read-out: Influenza A H1N1 EC50
[11] = Influenza A virus, H3N2; read-out: Influenza A H3N2 EC50
[12] = Influenza B virus; read-out: Influenza B EC50

| Structure (SMILES) | EC50 (Influenza A H1N1; [10]) [µM] | EC50 (Influenza A H3N2; [11]) [µM] | EC50 [1] [µM] | EC50 (Influenza B; [12]) [µM] | EC50 (RSV) [µM] | EC50 (Measles) [µM] | EC50 (CHIK Virus) [µg/mL] | EC50 (Dengue Virus) [µg/mL] | EC50 (RVFV) [µg/mL] | EC50 (Tacaribe Virus) [µg/mL] | EC50 (VEEV) [µg/mL] | EC50 (West Nile Virus) [µg/mL] | EC50 (SARS) [µM] | CC50 [3] [µM] | further results |
| --- | --- | --- | --- | --- | --- | --- | --- | --- | --- | --- | --- | --- | --- | --- | --- |
| CNc1ccn([C@@H]2O[C@H](CO)C(O)[C@@H]2F)c(=O)n1 (stereo partly drawn) [EFVX-01853] | > 100 | > 100 | > 100 | > 100 | > 100 | > 100 | > 100 | > 100 | > 100 | > 100 | > 100 | > 100 | > 100 | – | – |
| CN(C)c1ccn([C@@H]2O[C@H](CO)C(O)[C@@H]2F)c(=O)n1 (stereo partly drawn) [EFVX-01854] | > 100 | > 100 | > 100 | > 100 | > 100 | > 100 | > 100 | > 100 | > 100 | > 100 | > 100 | > 100 | > 100 | – | – |
| Cc1cn([C@@H]2O[C@H](CO)C(O)[C@@H]2F)c(=O)nc1N (stereo partly drawn) [EFVX-01855] | > 100 | > 100 | > 100 | > 100 | > 100 | > 100 | > 100 | > 100 | > 100 | > 100 | > 100 | > 100 | > 100 | – | – |
| Nc1nc(=O)n([C@@H]2O[C@H](CO)C(O)[C@@H]2F)cc1CO (stereo partly drawn) [EFVX-01856] | > 100 | > 100 | > 100 | > 100 | > 100 | > 100 | > 100 | > 100 | > 100 | > 100 | > 100 | > 100 | > 100 | – | – |
| Nc1ccn([C@@H]2O[C@H](CO)C(O)[C@@H]2F)c(=S)n1 (stereo partly drawn) [EFVX-01857] | – | – | > 100 | > 100 | > 100 | > 100 | > 100 | > 100 | > 100 | > 100 | > 100 | > 100 | > 87 | – | EC50 (Influenza A H1N1; Influenza A virus, H1N1, read-out: Influenza A H1N1 EC50): > 100 µM; EC50 (Influenza A H3N2; Influenza A virus, H3N2, read-out: Influenza A H3N2 EC50): > 100 µM; CC50 (in vitro): 87 µM |
| CC(C)OP1(=O)OC[C@H]2O[C@@H](n3ccc(=O)[nH]c3=O)C(F)[C@H]2O1 (stereo partly drawn) [EFVX- 01841] | > 100 | > 100 | > 100 | – | > 100 | – | – | – | – | – | – | – | 70 | – | EC50 (Influenza B; Influenza B virus, read-out: Influenza B EC50): > 100 µM; CC50 (in vitro): > 89 µM |
| C[C@@]1(O)C(O)[C@@H](CO)O[C@H]1n1ccc(=O)[nH]c1=S (stereo partly drawn) [ENUC-01850-1] | – | – | – | – | – | – | – | – | – | – | – | – | – | > 400 | CC50 [2]: > 100 µM; CC50 [4]: > 100 µM |
| C[C@@]1(O)C(O)[C@@H](CO)O[C@H]1n1ccc(=O)[nH]c1=S (stereo partly drawn) [ENUC-01850] | – | – | – | – | – | – | – | – | – | – | – | – | – | – | CC50 [5]: > 100 µM; CC50 [6]: > 100 µM |
| O=c1[nH]c(=S)ccn1[C@@H]1O[C@H](CO)C(O)[C@@H]1O (stereo partly drawn) [ENUC-01893-1] | – | – | – | – | – | – | – | – | – | – | – | – | – | – | CC50 at 72 h [7]: 45.7 µM |
| CC(C)OC(=O)[C@H](C)NP(=O)(OC[C@H]1O[C@@H](n2ccc(=O)[nH]c2=S)[C@](C)(O)C1O)Oc1ccccc1 (stereo partly drawn) [ENUC-01911-1] | – | – | – | – | – | – | – | – | – | – | – | – | – | > 400 | CC50 (Cytotoxicity panel, H9c): > 200 µM; CC50 [2]: > 400 µM; CC50 [4]: > 300 µM |
| CC(C)OC(=O)[C@H](C)NP(=O)(OC[C@H]1O[C@@H](n2ccc(=O)[nH]c2=S)[C@](C)(O)C1O)Oc1ccccc1 (stereo partly drawn) [ENUC-01911-2] | – | – | – | – | – | – | – | – | – | – | – | – | – | – | CC50 [8]: > 10 µM; CC50 (Huh-7): > 400 µM |
| C[C@@]1(O)C(O)[C@@H](CO)O[C@H]1n1ccc(=S)[nH]c1=O (stereo partly drawn) [ENUC-01916-1] | – | – | – | – | – | – | – | – | – | – | – | – | – | > 400 | – |
| CC(C)OC(=O)[C@H](C)NP(=O)(OC[C@H]1O[C@@H](n2ccc(=S)[nH]c2=O)[C@](C)(O)C1O)Oc1ccccc1 (stereo partly drawn) [ENUC-01920-1] | – | – | – | – | – | – | – | – | – | – | – | – | – | > 400 | CC50 [2]: > 400 µM |
| CC(C)OC(=O)[C@H](C)NP(=O)(OC[C@H]1O[C@@H](n2ccc(=S)[nH]c2=O)[C@](C)(F)C1O)Oc1ccccc1 (stereo partly drawn) [ENUC-01943-1] | – | – | – | – | – | – | – | – | – | – | – | – | – | 199 | CC50 (Cytotoxicity panel, A204): > 200 µM; CC50 [9]: > 400 µM; CC50 (Cytotoxicity panel, CEM): 136 µM; CC50 [4]: > 300 µM |
